{"source": "patent US4778800A", "about": "“3-oxadiazole and 3-carboxylic acid beta-carboline derivatives, and their use as psychotropic agents” (Schering Aktiengesellschaft, priority 1985, dated 1988)", "key": {"benzodiazepine receptors": {"target": "benzodiazepine receptors", "assay": "displacement of 3H-flunitrazepam from benzodiazepine receptors in vitro", "format": "binding", "conditions": "3H-flunitrazepam 1.0 nM, 0° C., rat forebrain membranes, pH 7.1"}, "[1]": {"assay": "anticonvulsive action: stopping of spasms induced by pentylenetetrazole (pentazol)", "format": "in vivo", "conditions": "Mus musculus, ip, 0.5 h; mice, i.p., pentazol 150 mg/kg s.c. 15-30 minutes later; protects 50% of animals from spasms and death (Litchfield and Wilcoxon); read-out: PTZ ED50", "description": "In the pharmacological tests, the compounds according to the invention especially show anxiolytic and anticonvulsive effectiveness. For examination of the anticonvulsive action, stopping of spasms induced by pentylenetetrazole (pentazol) was examined. Pentazol is administered subcutaneously in an amount of 150 mg/kg as a hydrochloric acid solution (pH 2-3) 15-30 minutes after the intraperitoneal application of the test substance. This amount induces clonic and tonic spasms which lead to death in untreated animals. The number of mice which show spasms and the number of them that died 30 minutes after pentazol are recorded.\nThe ED50 values indicated in the table were determined according to the method of Litchfield and Wilcoxon (J. Pharmacol. exp. Ther. 96 (1949) […]) as the amount of antagonistically acting substance which protects 50% of the animals from spasms and death."}, "benzodiazepine receptor": {"system": "benzodiazepine receptor", "assay": "in vivo displacement of 3H-flunitrazepam binding on the benzodiazepine receptor in live brain", "conditions": "mice, normally i.p.; 3H-flunitrazepam i.v. after 15 minutes; 50% reduction of specific binding in forebrain"}}}
{"smiles": "CCOC(CC)c1cccc2[nH]c3cnc(-c4nc(CC)no4)c(COC)c3c12", "note": "(stereo not drawn) [5-CH(C2 H5)OC2 H5, CH2 OCH3, drawing 8]", "values": [{"measurement": "IC50 in vitro", "setting": "benzodiazepine receptors", "result": 0.2, "unit": "ng/mL"}, {"measurement": "ED50", "setting": "[1]", "result": 0.3, "unit": "mg/kg"}, {"measurement": "ED50 in vivo", "setting": "benzodiazepine receptor", "result": 3, "unit": "mg/kg"}]}
{"smiles": "CCOC(=O)c1ncc2[nH]c3ccc(C(C)OCC(F)(F)F)cc3c2c1C", "note": "(stereo not drawn) [6-CH(CH3)OCH2 CF3, CH3, COOC2 H5, 4-methyl-6-(1-(2,2,2-trifluoroethoxy)-ethyl)-beta-carboline-3-carboxylic acid ethyl ester]", "values": [{"measurement": "IC50 in vitro", "setting": "benzodiazepine receptors", "result": 0.8, "unit": "ng/mL"}, {"measurement": "ED50", "setting": "[1]", "result": 2.4, "unit": "mg/kg"}, {"measurement": "ED50 in vivo", "setting": "benzodiazepine receptor", "result": 1.8, "unit": "mg/kg"}]}
{"smiles": "CCOC(=O)c1ncc2[nH]c3ccc(C(C)SCC)cc3c2c1C", "note": "(stereo not drawn) [6-CH(CH3)SC2 H5, CH3, COOC2 H5, 4-methyl-6-(1-ethylthioethyl)-beta-carboline-3-carboxylic acid ethyl ester]", "values": [{"measurement": "IC50 in vitro", "setting": "benzodiazepine receptors", "result": 1.2, "unit": "ng/mL"}, {"measurement": "ED50", "setting": "[1]", "result": 4, "unit": "mg/kg"}, {"measurement": "ED50 in vivo", "setting": "benzodiazepine receptor", "result": 0.43, "unit": "mg/kg"}]}
{"smiles": "CCCOC(C)c1cccc2[nH]c3cnc(C(=O)OC(C)C)c(C)c3c12", "note": "(stereo not drawn) [5-CH(CH3)OC3 H7, CH3, drawing 5]", "values": [{"measurement": "IC50 in vitro", "setting": "benzodiazepine receptors", "result": 0.75, "unit": "ng/mL"}, {"measurement": "ED50", "setting": "[1]", "result": 0.8, "unit": "mg/kg"}, {"measurement": "ED50 in vivo", "setting": "benzodiazepine receptor", "result": 1.8, "unit": "mg/kg"}]}
{"smiles": "CCOCc1cccc2[nH]c3cnc(C(=O)OCC)c(C)c3c12", "note": "[5-CH2 OC2 H5, CH3, COOC2 H5, reference compound]", "values": [{"measurement": "IC50 in vitro", "setting": "benzodiazepine receptors", "result": 0.8, "unit": "ng/mL"}, {"measurement": "ED50", "setting": "[1]", "result": "> 100", "unit": "mg/kg"}, {"measurement": "ED50 in vivo", "setting": "benzodiazepine receptor", "result": 1.0, "unit": "mg/kg"}]}
{"smiles": "CCOC(C)c1cccc2[nH]c3cnc(-c4nc(CC)no4)c(C)c3c12", "note": "(stereo not drawn) [5-CH(CH3)OC2 H5, CH3, drawing 6, 3-[5-(3-ethyl-1,2,4-oxadiazol)yl]-4-methyl-5-(1-ethoxyethyl)-beta-carboline]", "values": [{"measurement": "IC50 in vitro", "setting": "benzodiazepine receptors", "result": 0.3, "unit": "ng/mL"}, {"measurement": "ED50", "setting": "[1]", "result": 0.4, "unit": "mg/kg"}, {"measurement": "ED50 in vivo", "setting": "benzodiazepine receptor", "result": 0.09, "unit": "mg/kg"}]}
{"smiles": "CCOC(=O)c1ncc2[nH]c3cccc(COC)c3c2c1C", "note": "[5-CH2 OCH3, CH3, COOC2 H5, reference compound]", "values": [{"measurement": "IC50 in vitro", "setting": "benzodiazepine receptors", "result": 0.45, "unit": "ng/mL"}, {"measurement": "ED50", "setting": "[1]", "result": "> 100", "unit": "mg/kg"}, {"measurement": "ED50 in vivo", "setting": "benzodiazepine receptor", "result": 2.0, "unit": "mg/kg"}]}
{"smiles": "CCOC(CC)c1cccc2[nH]c3cnc(-c4nc(CC)no4)c(C)c3c12", "note": "(stereo not drawn) [5-CH(C2 H5)OC2 H5, CH3, drawing 7, 3-[5-(3-ethyl-1,2,4-oxadiazol)yl]-4-methyl-5-(1-ethoxopropyl)-beta-carboline]", "values": [{"measurement": "IC50 in vitro", "setting": "benzodiazepine receptors", "result": 0.4, "unit": "ng/mL"}, {"measurement": "ED50", "setting": "[1]", "result": 0.6, "unit": "mg/kg"}, {"measurement": "ED50 in vivo", "setting": "benzodiazepine receptor", "result": 3, "unit": "mg/kg"}]}
{"smiles": "CCOC(C)c1ccc2[nH]c3cnc(-c4nc(CC)no4)c(CC)c3c2c1", "note": "(stereo not drawn) [6-CH(CH3)OC2 H5, C2 H5, drawing 9, 3-[5-(3-ethyl-1,2,4-oxadiazol)yl]-4-ethyl-6-(1-ethoxyethyl)-beta-carboline]", "values": [{"measurement": "IC50 in vitro", "setting": "benzodiazepine receptors", "result": 0.7, "unit": "ng/mL"}, {"measurement": "ED50", "setting": "[1]", "result": 2.3, "unit": "mg/kg"}, {"measurement": "ED50 in vivo", "setting": "benzodiazepine receptor", "result": 1.1, "unit": "mg/kg"}]}
{"smiles": "CCCOC(C)c1cccc2[nH]c3cnc(C(=O)OCC)c(C)c3c12", "note": "(stereo not drawn) [5-CH(CH3)OC3 H7, CH3, COOC2 H5, 5-(1-propoxyethyl)-4-methyl-beta-carboline-3-carboxylic acid ethyl ester]", "values": [{"measurement": "IC50 in vitro", "setting": "benzodiazepine receptors", "result": 0.4, "unit": "ng/mL"}, {"measurement": "ED50", "setting": "[1]", "result": 1, "unit": "mg/kg"}, {"measurement": "ED50 in vivo", "setting": "benzodiazepine receptor", "result": 0.6, "unit": "mg/kg"}]}
